Data from the Biogen ADME set (Fang et al. 2023).
Values after ≈ are worked out from the molar mass of the structure shown.

Details: for aqueous solubility: pH 6.8

SMILES	MDR1-MDCK efflux ratio	intrinsic clearance, human liver microsomes [mL/min/kg]	intrinsic clearance, rat liver microsomes [mL/min/kg]	aqueous solubility [µg/mL]	fraction unbound, human plasma	fraction unbound, rat plasma
CC(C)N(C[C@@H]1O[C@@H](n2cnc3c(N)ncnc32)[C@H](O)[C@H]1O)[C@H]1C[C@@H](CCc2nc3cc(C(C)(C)C)ccc3[nH]2)C1	3.45	146	835	–	–	–
c1ccc(-c2n[nH]c(C3CCN(c4ccccn4)CC3)n2)cc1	0.974	15.8	440	34.4 (≈ 113 µM)	–	–
CC(C(O)c1ccc(O)cc1)N1CCC(Cc2ccccc2)CC1 (stereo not given)	1.08	150	960	51.7 (≈ 159 µM)	–	–
COc1ccc(-c2onc(C)c2-c2cnn(-c3ccccc3)c2)c(O)c1	–	–	–	0.25 (≈ 0.72 µM)	–	–
COCCCNc1nnc(-c2ccncc2)s1	0.654	13.3	84.1	–	–	–
Cc1nc(-c2cnn(C)c2-c2ccc(C(F)(F)F)cn2)c2c(N3CCC3)ncnn12	12.2	54.3	294	65.1 (≈ 157 µM)	–	–
CN(Cc1sccc1Br)c1nccnc1C#N	–	–	–	8.5 (≈ 27.5 µM)	–	–
O=C1Nc2ccc(Cl)cc2[C@@](C#CC2CC2)(C(F)(F)F)O1	–	–	–	15.3 (≈ 48.4 µM)	–	–
CNc1ccc(/C=C/C=C/c2nc3ccc(O)cc3s2)cn1	–	–	–	0.22 (≈ 0.711 µM)	–	–
COc1cc(Nc2c(C#N)cnc3cc(OCCCN4CCN(C)CC4)c(OC)cc23)c(Cl)cc1Cl	123	–	–	–	–	–
CC(C)c1noc(-c2ccc(N)cc2)n1	–	47.1	158	–	–	–
CC(C)c1cc(C(C)C)c(CC(=O)NS(=O)(=O)Oc2c(C(C)C)cccc2C(C)C)c(C(C)C)c1	4.45	45.9	170	–	–	–
COc1ccc(OC)c(C(=O)/C=C/c2ccccc2)c1	–	163	1960	–	–	–
CO[C@@H]1CC[C@@H](N(C)C(=O)COc2c(C)cccc2C)[C@H]1O	1.67	12.1	162	–	–	–
O=C(Cc1cn2ccccc2n1)N1CCC(n2c(=O)[nH]c3ccccc32)CC1	24.3	33.8	389	–	–	–
CC1(C)C(=O)N(Cc2ccc(CO)cc2)C(=O)c2ccccc21	–	–	–	27.5 (≈ 88.8 µM)	–	–
Cc1cc(N2CCN(C(=O)OC(C)(C)C)[C@H](C)C2)ncn1	0.766	9.46	124	51.7 (≈ 177 µM)	–	–
CN(Cc1nc2c(s1)CCCC2)c1cnccn1	0.576	131	1280	–	–	–
O=C(Nc1cccc(-c2nncn2C2CC2)c1)c1cc(-n2cnc(C3CC3)c2)ccn1	46.4	8.13	37.4	45 (≈ 109 µM)	0.0183	0.0409
Cc1ccc(S(=O)(=O)N2CCC(c3nnc(-c4cccnc4)o3)C2)cc1 (stereo not given)	2.87	41.7	591	–	–	–

SMILES	MDR1-MDCK efflux ratio	intrinsic clearance, human liver microsomes [mL/min/kg]	intrinsic clearance, rat liver microsomes [mL/min/kg]	aqueous solubility [µg/mL]	fraction unbound, human plasma	fraction unbound, rat plasma
CC(C)N(C(=O)Cn1cccc2cc(-c3ccco3)nc1-2)C(C)C	1.81	373	1790	–	–	–
O=c1c2sccc2nc2n1CCN(Cc1ccc(F)cc1F)CC2	0.519	57.9	1460	–	–	–
Cc1noc(C(C)C)c1C(=O)N1CC(C)OC(c2ccccc2)C1 (stereo not given)	0.943	71.2	1610	–	0.152	0.129
c1cnc(N2CC(c3nc4ccccc4[nH]3)C2)nc1	3.96	10.1	33.5	35 (≈ 139 µM)	–	–
O=C1CCCN1c1ccc(CN2CCC(c3noc4cc(F)ccc34)CC2)cc1	0.963	26.7	109	58.6 (≈ 149 µM)	–	–
CN1C(=O)N[C@H](Cc2c[nH]c3c(Cl)cccc23)C1=O	–	8.58	77.1	–	–	–
CCOC(=O)Nc1ccc2c(c1)N(C(=O)CN(CC)CC)c1ccccc1CC2	21.7	44.9	360	86.4 (≈ 218 µM)	–	–
CC(=O)NCCOc1ccc2ccccc2n1	–	12.9	89.1	–	–	–
CN1CCc2ccc(C(=O)NCCC(=O)Nc3cccnc3)cc21	43.4	6.19	86.6	–	–	–
O=C(NC[C@]1(O)CCN(Cc2cccs2)C[C@H]1O)c1c[nH]cn1	–	≤ 4.74	≤ 10.7	–	–	–
Cc1ccccc1Cn1c(=O)c2c(nc3n(-c4ccccc4O)c(C)cn23)n(C)c1=O	21.8	–	–	0.91 (≈ 2.19 µM)	–	–
Cc1noc(NCc2cccc(-c3cccnc3)c2)n1	0.752	20.5	157	34.6 (≈ 130 µM)	–	–
O=C(CSC1CCCC1)NCCn1nc2c(cc1=O)CCCC2	9.14	71	1180	60.8 (≈ 181 µM)	–	–
CC(C)c1csc(NC(=O)C2CCN(c3ncccn3)CC2)n1	0.562	44.6	268	44.8 (≈ 135 µM)	–	–
C[C@@H]1CC(=O)Nc2cccc(-c3ccc4c(c3)c(-c3cnn(C)c3)nn4C)c2N1	57.3	8.83	46.5	–	–	–
O=c1c(=O)n(-c2ccc(F)c(F)c2)ccn1Cc1ccccc1Cl	0.696	–	–	0.37 (≈ 1.06 µM)	–	–
CC#CC(=O)N1CC[C@@H](n2cc(-c3ccc(Oc4c(F)cccc4F)cc3)c3c(N)n[nH]c(=O)c32)C1	50.2	41.7	519	2.7 (≈ 5.52 µM)	0.00845	0.00935
CC(=O)NCCCC(=O)Nc1ccc(Oc2ccccc2Cl)cc1	8.25	9.61	722	–	–	–
CC1(C)Cc2cc(NC(=O)c3cnn4cccnc34)c(OCC3CC3)nc2O1	0.316	–	–	0.7 (≈ 1.84 µM)	0.00631	0.0241
CCN1CCC(CNC(=O)c2cc(C)nc3cc(F)ccc23)CC1	25.4	≤ 4.74	≤ 10.7	37.2 (≈ 113 µM)	–	–

SMILES	MDR1-MDCK efflux ratio	intrinsic clearance, human liver microsomes [mL/min/kg]	intrinsic clearance, rat liver microsomes [mL/min/kg]	aqueous solubility [µg/mL]	fraction unbound, human plasma	fraction unbound, rat plasma
Fc1cccc(CCNCc2cc(-c3ccccc3)cn3nnnc23)c1	0.71	190	1720	13.7 (≈ 39.5 µM)	–	–
Cc1nc(Cc2ccccc2)sc1C(=O)Nc1cccc(-c2ccn[nH]2)c1	2.86	30.4	406	–	–	–
Oc1ccc(-c2noc(-c3cccnc3)n2)cc1	–	25.1	79.3	5.03 (≈ 21 µM)	–	–
CC(C)NC(=O)c1cn(-c2ccccc2)nc1-c1ccccc1	0.459	–	–	0.22 (≈ 0.72 µM)	–	–
O=C(c1ccccc1-c1ncc(-c2ccccc2F)o1)N1CCC1	0.659	35.1	456	43.6 (≈ 135 µM)	–	–
Cc1ccc2cccc(OCC(=O)N(C)c3ccccc3)c2n1	1.52	126	482	55 (≈ 179 µM)	–	–
O=C(Nc1nc2ccccc2[nH]1)c1ccccc1	–	–	–	1.65 (≈ 6.95 µM)	–	–
Cc1nccc(-c2cccc(NCC(=O)NCc3ccccc3)c2)n1	–	62.8	653	–	–	–
O=C(Nc1ncccc1OC(F)F)C1CCCCC1	–	61.6	1090	–	–	–
CC(C)[C@@](C)(O)[C@@H]1CN(c2nc(-c3n[nH]c4ncccc34)c(F)cc2Cl)CCN1	–	–	–	–	0.201	0.0419
Cc1cccc(NC(=O)C(=O)c2c(C)nn(C)c2C)n1	–	19.4	231	–	–	–
Cc1ccn(CCC(=O)N2CCc3nc4sccc4c(=O)n3CC2)n1	–	17	242	–	–	–
COc1ccc2nc(C)nc(N3CC(CO)C3)c2c1	11.5	5.26	13.6	29.3 (≈ 113 µM)	–	–
CC1CCC(CNC2(CCO)CCOCC2)CC1 (stereo not given)	1.29	≤ 4.74	1200	–	–	–
O=C(c1cccc(Nc2ncccn2)c1)N1CCOCC(Cc2cccc3ccncc23)C1 (stereo not given)	28	281	1650	–	–	–
COc1ncnc2c1CN(Cc1c[nH]nc1-c1ccc(F)cc1)CC2	7.03	70.7	210	28.4 (≈ 83.5 µM)	–	–
Cc1ccc(C(=O)Nc2ncccc2C)s1	0.664	6.72	34.6	37.8 (≈ 163 µM)	–	–
CN(c1ccccc1N)S(C)(=O)=O	–	10.2	24.1	–	–	–
Cc1nccn1-c1cncc(N2CCN(CC3CCCC3)C(=O)C2)n1	6.94	19.7	540	49.7 (≈ 146 µM)	–	–
CC(C)c1ccc2c(c1)[C@H](NC(=O)Cn1ccnn1)CCC2	3.4	88.8	297	12.6 (≈ 42.1 µM)	–	–
